Measured values as given in patent US9273151B2, “Proteinaceous-substance-binding low-molecular-weight compound” (Kaneka Corporation, priority 2011, dated 2016).

The compounds below were run on IgG-Fc (Fc fragment of IgG preparation derived from human plasma) (assay: Biacore 3000 surface plasmon resonance analysis of the affinity of the low-molecular-weight compound for IgG-Fc). Details: IgG-Fc immobilized on sensor chip CM5; compound 25 μM to 100 μM in running buffer pH 7.4, 5% DMSO; 25° C.; 1:1 binding model fit.
Protocol: An Fc fragment was prepared by fragmenting an IgG preparation derived from human plasma as a raw material into a Fab fragment and an Fc fragment using papain and separating the Fc fragment only to be purified. Gammagard, which is an IgG preparation derived from human plasma and which was manufactured by Baxter, was dissolved into a buffer solution for papain digestion which contained 0.1 M AcOH—AcONa, 2 mM EDTA and 1 mM cysteine and of which pH was 5.5, and Papain Agarose from papaya latex (papain-immobilized agarose, manufactured by SIGMA) was added to the solution. The mixture was mixed using a rotator and incubated at 37° C. for about 8 hours. The reaction mixture, which contained both of a Fab fragment and an Fc fragment, was separated from the papain-immobilized agarose. The Fc fragment was separated to be purified from the reaction mixture by affinity chromatography using Protein A column (MabSelect, manufactured by GE Healthcare Company). Hereinafter, the Fc fragment is referred to as “IgG-Fc”. Specifically, the reaction mixture, which contained both of a Fab fragment and an Fc fragment, was diluted with a phosphate buffer (20 mM NaH2PO4—Na2HPO4, 150 mM NaCl, pH 7.4) so that the pH became about 7.4. The diluted mixture was added to a Protein A column which was equilibrated using a phosphate buffer, and the column was washed with a phosphate buffer. Then, an IgG-Fc solution was obtained by using an eluent buffer B (100 mM citric acid, pH 3.0) to elute the IgG-Fc. The above-described protein purification by chromatography was carried out using AKTAprime plus system manufactured by GE Healthcare Company.
The analysis of the affinity between the low-molecular-weight compound and IgG-Fc was carried out using Biacore 3000, which was manufactured by GE Healthcare Company and in which surface plasmon resonance was utilized, under the following protocol. All of the sensor chip and reagents used in the following protocol were manufactured by GE Healthcare Company. The low-molecular-weight compounds (2) to (17) of which binding properties were evaluated were obtained from Namiki Shoji Co., Ltd.
The IgG-Fc obtained in the Example 1 was diluted 50-fold with a buffer for immobilization (10 mM CH3COOH—CH3COONa, pH 4.5), and the IgG-Fc was immobilized on a sensor chip CM5 in accordance with the protocol provided with Biacore 3000. The immobilization of the IgG-Fc on the sensor chip CM5 was carried out by amine coupling method using N-hydroxysuccinimide (NHS) and N-ethyl-N′-(3-dimethylaminopropyl)carbodiimide hydrochroride (EDC), and ethanolamine was used for blocking. In addition, a reference cell was prepared as a negative control by activating other flow cell on a chip by EDC/NHS and then immobilizing ethanolamine.
A ligand of any one of the low-molecular-weight compounds (2) to (17) was flowed on the above sensor chip to detect an interaction. Specifically, each of the low-molecular-weight compound (2) to (17) to be measured was diluted with a running buffer (20 mM NaH2PO4—Na2HPO4, 150 mM NaCl, 0.005% P-20, 5% DMSO, pH 7.4) to prepared three or four kinds of diluted solutions of which concentrations were different each other within the range of 25 μM to 100 μM with respect to each compound. The prepared solutions of the each low-molecular-weight compound were added to the sensor chip at a flow rate of 30 μL/min for 120 seconds. Binding reaction curves were orderly observed at the time of addition (binding phase, for 120 seconds) and after the addition (dissociation phase, for 120 second) at the measurement temperature of 25° C. After the each observation, 40 mM NaOH was added for 15 seconds to regenerate the sensor chip. A binding reaction curve of a sample containing DMSO was corrected using a Biacore correction tool manufactured by GE Healthcare Company with respect to the obtained binding curves (see FIGS. 1 to 4). […]

Row | SMILES | KA × 10^4 (M^−1), coupling/binding constant KA=Kon/Koff
1 | O=C(CSc1ncnc2c1cnn2-c1ccccc1)c1ccc(O)c(O)c1 [(3)] | 5.1 × 10^4 M^−1
2 | O=C(CSc1nnc2sc3ccccc3n12)c1ccc(O)c(O)c1 [(4)] | 5.1 × 10^4 M^−1
3 | O=C(CSc1nnc(SCc2cccc3ccccc23)s1)c1ccc(O)c(O)c1 [(5)] | 4.6 × 10^4 M^−1
4 | CC(C)(c1ccc(O)cc1)c1cccc(C(C)(C)c2ccc(O)cc2)c1 [(6)] | 2.9 × 10^4 M^−1
5 | CN(c1ccc(O)cc1)c1ncc([N+](=O)[O-])c(N(C)c2ccc(O)cc2)n1 [(7)] | 0.96 × 10^4 M^−1
6 | Nc1cccc(Oc2cccc(Oc3cccc(N)c3)c2)c1 [(8)] | 0.95 × 10^4 M^−1
7 | O=C1N/C(=C\c2ccc(O)c(Br)c2)C(=O)N1Cc1ccc(Cl)cc1 [(9)] | 0.48 × 10^4 M^−1
8 | Oc1ccc(-c2csc(COc3ccccc3)n2)cc1O [(10)] | 0.4 × 10^4 M^−1
9 | O=C1Sc2c(S(=O)(=O)Nc3ccc(O)cc3)cc(S(=O)(=O)Nc3ccc(O)cc3)c3cccc1c23 [(11)] | 0.37 × 10^4 M^−1
10 | Nc1ccc(Oc2nc(Oc3ccc(N)cc3)c(F)c(Oc3ccc(N)cc3)c2F)cc1 [(12)] | 0.2 × 10^4 M^−1
11 | CC(Sc1nnnn1-c1ccc(O)cc1)C(=O)c1ccc(F)c(F)c1 (stereo not shown) [(13)] | 0.17 × 10^4 M^−1
12 | CN(c1ccc(O)cc1)c1nc(S(=O)(=O)c2ccccc2)c(Cl)s1 [(14)] | 0.16 × 10^4 M^−1
13 | Cc1ccc(C(=O)C(C)Sc2nnnn2-c2ccc(O)cc2)cc1 (stereo not shown) [(15)] | 0.12 × 10^4 M^−1
14 | Cc1ccc(OCc2nc(CSc3nc(N)cc(N)n3)cs2)cc1 [(16)] | 0.06 × 10^4 M^−1
15 | Cc1cc(C(=O)CSc2nc(N)cc(N)n2)c(C)n1Cc1ccc2c(c1)OCO2 [(17)] | 0.05 × 10^4 M^−1
16 | O=c1cc(CSc2ncnc3c2cnn3-c2ccccc2)c2cc(O)c(O)cc2o1 [compound (2)] | 13 × 10^4 M^−1
